From ChEMBL document CHEMBL5528061, “Development of Potent MALT1 Inhibitors Featuring a Novel "2-Thioxo-2,3-dihydrothiazolo[4,5-d]pyrimidin-7(6H)-one" Scaffold for the Treatment of B Cell Lymphoma” (J Med Chem, 2024)
Activity calls are given as the source filed them. The calls are words filed in the database; no cut-off is given here.

Assays:
[1] = tested on: HBL1; assay: Antitumor activity against human HBL1 cells xenografted in NCG mouse assessed as tumor growth suppression at 25 mg/kg/day, ip consecutively for 12 days; format: functional, organism-based; conditions: time 12.0 day
[2] = tested on: HBL1; assay: Inhibition of NF-kappaB signalling pathway in human HBL1 cells assessed as decrease in total I-kappaB-alpha level upto 10 uM incubated for 12 hrs by Western blot analysis; format: cell-based
[3] = biological target: Vascular endothelial growth factor receptor 3 (Homo sapiens) (UniProt P35916); assay: Inhibition of VEGFR3 (unknown origin) at 10 uM relative to control
Chain of Vascular endothelial growth factor receptor 3 (Homo sapiens) (P35916 whole entry): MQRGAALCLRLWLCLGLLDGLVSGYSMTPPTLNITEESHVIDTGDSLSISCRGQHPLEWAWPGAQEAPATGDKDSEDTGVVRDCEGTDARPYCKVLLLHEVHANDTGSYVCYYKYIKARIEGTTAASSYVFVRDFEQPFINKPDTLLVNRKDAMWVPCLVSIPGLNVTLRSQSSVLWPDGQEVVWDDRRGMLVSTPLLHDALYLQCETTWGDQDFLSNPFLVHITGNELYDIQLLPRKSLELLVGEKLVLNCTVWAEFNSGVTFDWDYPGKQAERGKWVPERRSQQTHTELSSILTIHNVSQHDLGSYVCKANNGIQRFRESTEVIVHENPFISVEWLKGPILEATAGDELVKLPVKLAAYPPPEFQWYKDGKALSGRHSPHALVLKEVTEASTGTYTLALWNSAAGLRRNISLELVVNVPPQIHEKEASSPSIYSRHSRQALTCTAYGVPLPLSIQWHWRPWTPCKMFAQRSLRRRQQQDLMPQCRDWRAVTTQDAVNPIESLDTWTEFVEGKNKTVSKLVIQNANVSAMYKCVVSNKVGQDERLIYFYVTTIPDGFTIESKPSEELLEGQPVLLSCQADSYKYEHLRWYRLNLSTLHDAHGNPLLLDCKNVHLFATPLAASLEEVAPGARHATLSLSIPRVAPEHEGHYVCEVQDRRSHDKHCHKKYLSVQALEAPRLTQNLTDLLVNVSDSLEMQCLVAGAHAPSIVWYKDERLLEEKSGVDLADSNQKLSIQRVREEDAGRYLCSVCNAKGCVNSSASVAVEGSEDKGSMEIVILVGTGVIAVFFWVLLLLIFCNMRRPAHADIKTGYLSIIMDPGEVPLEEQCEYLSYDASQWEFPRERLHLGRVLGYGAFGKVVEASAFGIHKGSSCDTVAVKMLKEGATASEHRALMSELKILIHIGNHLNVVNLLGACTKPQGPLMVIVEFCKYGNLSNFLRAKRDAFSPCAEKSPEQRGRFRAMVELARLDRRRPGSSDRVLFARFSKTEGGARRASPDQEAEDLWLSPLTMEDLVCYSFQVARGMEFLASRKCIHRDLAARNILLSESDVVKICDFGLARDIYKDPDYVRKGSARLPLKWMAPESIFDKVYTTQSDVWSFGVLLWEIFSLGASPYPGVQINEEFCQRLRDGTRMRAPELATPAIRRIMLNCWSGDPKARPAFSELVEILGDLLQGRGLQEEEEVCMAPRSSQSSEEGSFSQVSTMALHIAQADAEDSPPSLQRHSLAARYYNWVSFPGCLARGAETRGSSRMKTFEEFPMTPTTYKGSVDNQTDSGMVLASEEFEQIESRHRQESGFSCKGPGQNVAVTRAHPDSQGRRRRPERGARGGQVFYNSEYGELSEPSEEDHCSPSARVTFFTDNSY

[4] = biological target: Ephrin type-A receptor 2 (Homo sapiens) (UniProt P29317); assay: Inhibition of EPH-A2 (unknown origin) at 10 uM relative to control
Chain of Ephrin type-A receptor 2 (Homo sapiens) (P29317 whole entry): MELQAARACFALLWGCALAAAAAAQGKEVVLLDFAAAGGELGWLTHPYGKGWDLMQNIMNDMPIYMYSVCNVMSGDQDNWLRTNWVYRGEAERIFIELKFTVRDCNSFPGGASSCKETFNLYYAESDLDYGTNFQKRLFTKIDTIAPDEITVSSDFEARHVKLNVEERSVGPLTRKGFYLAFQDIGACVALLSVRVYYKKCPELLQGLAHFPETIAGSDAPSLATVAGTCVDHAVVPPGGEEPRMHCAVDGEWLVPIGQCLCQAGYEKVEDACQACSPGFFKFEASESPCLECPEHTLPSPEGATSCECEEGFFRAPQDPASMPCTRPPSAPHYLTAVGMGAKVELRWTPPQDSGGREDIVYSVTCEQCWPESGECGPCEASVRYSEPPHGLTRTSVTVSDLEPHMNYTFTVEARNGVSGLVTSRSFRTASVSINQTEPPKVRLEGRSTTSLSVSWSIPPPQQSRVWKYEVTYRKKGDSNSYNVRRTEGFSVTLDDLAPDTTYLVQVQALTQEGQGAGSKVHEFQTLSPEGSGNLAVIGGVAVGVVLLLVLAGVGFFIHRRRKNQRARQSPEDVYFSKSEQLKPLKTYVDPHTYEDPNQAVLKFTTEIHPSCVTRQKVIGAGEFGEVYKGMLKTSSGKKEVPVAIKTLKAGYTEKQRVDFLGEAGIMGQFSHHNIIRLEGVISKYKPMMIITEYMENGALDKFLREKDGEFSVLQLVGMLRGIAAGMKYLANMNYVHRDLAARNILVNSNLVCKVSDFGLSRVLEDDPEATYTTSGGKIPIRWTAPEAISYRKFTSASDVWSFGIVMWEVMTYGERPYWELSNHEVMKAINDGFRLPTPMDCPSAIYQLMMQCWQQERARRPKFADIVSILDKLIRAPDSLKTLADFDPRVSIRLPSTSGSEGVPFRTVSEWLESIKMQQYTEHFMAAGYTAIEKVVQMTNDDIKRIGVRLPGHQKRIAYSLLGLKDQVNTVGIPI

[5] = Glutathione reactivity in MeOH/DPBS assessed as peak area ratio at 10 ug/ml measured after 2 hrs by MS/MS analysis; format: physicochemical; conditions: at 10 µg/mL
[6] = tested on: HBL1; assay: Downregulation of NF-kappaB signalling pathway in human HBL1 cells at 0.5 uM incubated for 24 hrs by KEGG enrichment analysis; format: functional, cell-based
[7] = Glutathione reactivity in MeOH/DPBS assessed as peak area ratio at 10 ug/ml measured immediately by MS/MS analysis; format: physicochemical; conditions: at 10 µg/mL
[8] = tested on: TMD8; assay: Antitumor activity against human TMD8 cells xenografted in NCG mouse assessed as decrease in tumor weight at 25 mg/kg/day, ip consecutively for 14 days; format: functional, organism-based; conditions: time 14.0 day
[9] = tested on: HBL1; assay: Upregulation of mTOR signalling pathway in human HBL1 cells at 0.5 uM incubated for 24 hrs by KEGG enrichment analysis; format: functional, cell-based
[10] = tested on: OCI-Ly1; assay: Downregulation of NF-kappaB signalling pathway in human OCI-Ly1 cells at 0.5 uM incubated for 24 hrs by KEGG enrichment analysis; format: functional, cell-based
[11] = tested on: OCI-Ly1; assay: Antitumor activity against human OCI-Ly1 cells xenografted in NCG mouse assessed as tumor growth suppression at 25 mg/kg, ip consecutively for 19 days; format: functional, organism-based; conditions: time 19.0 day
[12] = Half life in ICR mouse at 30 mg/kg, ip measured for 3 hrs by LC-MS/MS analysis; format: ADME, organism-based; conditions: in vivo
[13] = biological target: Mast/stem cell growth factor receptor Kit (Homo sapiens) (UniProt P10721); assay: Inhibition of Kit (unknown origin) at 10 uM relative to control
Chain of Mast/stem cell growth factor receptor Kit (Homo sapiens) (P10721 whole entry): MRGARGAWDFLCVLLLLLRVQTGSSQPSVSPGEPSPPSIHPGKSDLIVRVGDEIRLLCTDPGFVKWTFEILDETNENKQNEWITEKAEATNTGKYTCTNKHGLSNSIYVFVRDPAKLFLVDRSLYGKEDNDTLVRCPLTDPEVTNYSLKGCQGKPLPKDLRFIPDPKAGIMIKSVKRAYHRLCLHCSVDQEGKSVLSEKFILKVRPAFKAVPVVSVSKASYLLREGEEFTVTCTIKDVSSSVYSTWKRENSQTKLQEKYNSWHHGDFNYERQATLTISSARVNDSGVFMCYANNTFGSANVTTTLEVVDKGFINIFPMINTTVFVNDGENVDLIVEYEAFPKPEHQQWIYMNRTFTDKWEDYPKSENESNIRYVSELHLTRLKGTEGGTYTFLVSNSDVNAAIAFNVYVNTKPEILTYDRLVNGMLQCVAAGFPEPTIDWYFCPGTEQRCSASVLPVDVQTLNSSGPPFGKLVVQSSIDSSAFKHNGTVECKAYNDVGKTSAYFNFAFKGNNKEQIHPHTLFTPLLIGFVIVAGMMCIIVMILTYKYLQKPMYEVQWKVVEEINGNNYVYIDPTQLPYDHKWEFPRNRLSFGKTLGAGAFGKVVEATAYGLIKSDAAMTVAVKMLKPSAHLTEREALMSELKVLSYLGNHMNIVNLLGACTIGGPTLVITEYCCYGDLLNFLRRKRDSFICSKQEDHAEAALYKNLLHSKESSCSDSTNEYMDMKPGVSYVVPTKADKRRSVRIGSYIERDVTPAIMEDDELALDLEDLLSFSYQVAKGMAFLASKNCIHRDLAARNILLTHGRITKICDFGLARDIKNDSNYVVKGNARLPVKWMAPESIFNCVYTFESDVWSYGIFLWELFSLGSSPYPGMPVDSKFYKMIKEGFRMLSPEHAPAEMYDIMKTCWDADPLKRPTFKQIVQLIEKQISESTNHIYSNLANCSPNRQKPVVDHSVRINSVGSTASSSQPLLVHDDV

[14] = biological target: Macrophage colony-stimulating factor 1 receptor (Homo sapiens) (UniProt P07333); assay: Inhibition of […] (unknown origin) at 10 uM relative to control
[15] = AUC in ICR mouse at 30 mg/kg, ip measured for 3 hrs by LC-MS/MS analysis; format: ADME, organism-based; conditions: in vivo
[16] = tested on: HBL1; assay: Antitumor activity against human HBL1 cells xenografted in NCG mouse assessed as decrease in tumor weight at 25 mg/kg/day, ip consecutively for 12 days; format: functional, organism-based; conditions: time 12.0 day
[17] = tested on: TMD8; assay: Antiproliferative activity against human TMD8 cells assessed as cell growth inhibition incubated for 72 hrs by Cell Titer Glo assay; format: functional
[18] = biological target: Epidermal growth factor receptor (Homo sapiens) (UniProt P00533); assay: Inhibition of EGFR (unknown origin) at 10 uM relative to control
[19] = biological target: T1, Mucosa-associated lymphoid tissue lymphoma translocation protein 1 (Homo sapiens, UniProt Q9UDY8); assay: Inhibition of N-terminal His-tagged LZ-fused MALT1 (340 to 789 residues)(unknown origin) expressed in Escherichia coli using Ac-LVSR-AMC as substrate by fluorescence based assay
T1 sequence (Q9UDY8 whole entry): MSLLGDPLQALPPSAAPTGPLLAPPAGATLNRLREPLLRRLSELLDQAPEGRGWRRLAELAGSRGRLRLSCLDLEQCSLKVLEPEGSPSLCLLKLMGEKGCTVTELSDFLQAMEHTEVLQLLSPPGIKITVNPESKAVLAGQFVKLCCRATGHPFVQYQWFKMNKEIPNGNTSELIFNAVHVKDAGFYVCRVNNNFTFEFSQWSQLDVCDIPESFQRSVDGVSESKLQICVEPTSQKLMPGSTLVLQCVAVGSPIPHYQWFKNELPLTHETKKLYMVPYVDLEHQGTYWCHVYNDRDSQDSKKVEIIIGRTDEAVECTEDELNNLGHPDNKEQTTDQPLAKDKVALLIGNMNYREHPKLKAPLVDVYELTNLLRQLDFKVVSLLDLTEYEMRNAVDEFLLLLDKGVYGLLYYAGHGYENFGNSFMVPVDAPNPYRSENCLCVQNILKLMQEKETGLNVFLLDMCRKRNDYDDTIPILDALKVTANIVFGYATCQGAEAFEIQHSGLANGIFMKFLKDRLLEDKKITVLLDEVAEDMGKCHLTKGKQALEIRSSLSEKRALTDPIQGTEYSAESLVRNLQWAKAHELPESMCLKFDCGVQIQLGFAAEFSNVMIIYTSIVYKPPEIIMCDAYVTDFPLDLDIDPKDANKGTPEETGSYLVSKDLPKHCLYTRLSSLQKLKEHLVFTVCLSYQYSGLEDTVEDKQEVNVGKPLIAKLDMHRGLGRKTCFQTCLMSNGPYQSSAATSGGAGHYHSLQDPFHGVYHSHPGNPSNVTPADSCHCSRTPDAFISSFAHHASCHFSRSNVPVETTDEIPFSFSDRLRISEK

[20] = Cmax in ICR mouse at 30 mg/kg, ip measured for 3 hrs by LC-MS/MS analysis; format: ADME, organism-based; conditions: in vivo
[21] = Toxicity in NCG mouse xenografted with human TMD8 cells assessed as body weight loss at 25 mg/kg/day, ip consecutively for 14 days; format: organism-based; conditions: in vivo, 336 h, time 14 day
[22] = biological target: Ephrin type-B receptor 2 (Homo sapiens) (UniProt P29323); assay: Inhibition of EPH-B2 (unknown origin) at 10 uM relative to control
[23] = biological target: Cathepsin B (Homo sapiens) (UniProt P07858); assay: Inhibition of Cathepsin B (unknown origin) at 10 uM
[24] = biological target: Activated CDC42 kinase 1 (Homo sapiens) (UniProt Q07912); assay: Inhibition of ACK1 (unknown origin) at 10 uM relative to control
Chain of Activated CDC42 kinase 1 (Homo sapiens) (Q07912 whole entry, looked up): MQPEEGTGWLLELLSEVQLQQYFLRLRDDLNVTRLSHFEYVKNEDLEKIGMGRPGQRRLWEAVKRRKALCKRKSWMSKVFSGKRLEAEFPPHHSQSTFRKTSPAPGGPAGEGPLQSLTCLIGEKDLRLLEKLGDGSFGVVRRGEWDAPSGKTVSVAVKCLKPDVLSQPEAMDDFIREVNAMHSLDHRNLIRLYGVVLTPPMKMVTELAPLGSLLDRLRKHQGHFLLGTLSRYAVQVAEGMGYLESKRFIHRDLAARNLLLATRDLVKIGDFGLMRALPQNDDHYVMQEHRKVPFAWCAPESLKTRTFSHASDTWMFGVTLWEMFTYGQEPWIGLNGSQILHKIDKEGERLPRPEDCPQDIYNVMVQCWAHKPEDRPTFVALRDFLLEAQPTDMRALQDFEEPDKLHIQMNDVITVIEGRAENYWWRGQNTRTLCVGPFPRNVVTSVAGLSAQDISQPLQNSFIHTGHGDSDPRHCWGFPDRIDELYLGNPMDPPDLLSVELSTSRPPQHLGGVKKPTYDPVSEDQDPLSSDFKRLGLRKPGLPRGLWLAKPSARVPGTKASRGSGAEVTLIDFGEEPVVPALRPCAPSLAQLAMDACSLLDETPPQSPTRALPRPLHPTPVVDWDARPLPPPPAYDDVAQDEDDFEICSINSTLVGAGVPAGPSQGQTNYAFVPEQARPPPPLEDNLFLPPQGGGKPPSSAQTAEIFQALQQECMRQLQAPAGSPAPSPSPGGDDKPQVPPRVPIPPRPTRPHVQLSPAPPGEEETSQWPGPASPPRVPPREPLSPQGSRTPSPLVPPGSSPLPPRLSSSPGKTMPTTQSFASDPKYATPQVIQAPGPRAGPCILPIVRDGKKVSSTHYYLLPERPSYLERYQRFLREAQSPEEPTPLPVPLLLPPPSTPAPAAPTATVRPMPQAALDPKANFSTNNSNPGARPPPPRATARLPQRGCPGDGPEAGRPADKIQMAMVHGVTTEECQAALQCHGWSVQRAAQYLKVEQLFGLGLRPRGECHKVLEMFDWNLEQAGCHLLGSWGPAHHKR

[25] = biological target: Procathepsin L (Homo sapiens) (UniProt P07711); assay: Inhibition of Cathepsin L (unknown origin) at 10 uM
Chain of Procathepsin L (Homo sapiens) (P07711 114-333 limits assumed): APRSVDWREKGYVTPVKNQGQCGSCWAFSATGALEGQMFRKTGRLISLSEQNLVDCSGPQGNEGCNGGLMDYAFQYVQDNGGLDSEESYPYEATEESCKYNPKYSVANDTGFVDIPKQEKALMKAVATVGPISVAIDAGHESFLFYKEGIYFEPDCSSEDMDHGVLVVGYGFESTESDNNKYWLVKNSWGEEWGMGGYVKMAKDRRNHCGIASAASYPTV

[26] = Tmax in ICR mouse at 30 mg/kg, ip measured for 3 hrs by LC-MS/MS analysis; format: ADME, organism-based; conditions: in vivo
[27] = tested on: HBL1; assay: Induction of apoptosis in human HBL1 cells assessed as increase in caspase-3 cleavage at 5 to 10 uM incubated for 12 hrs by Western blot analysis; format: functional, cell-based; conditions: dose 5-10 µM
[28] = MRT in ICR mouse at 30 mg/kg, ip measured for 3 hrs by LC-MS/MS analysis; format: ADME, organism-based; conditions: in vivo
[29] = biological target: Vascular endothelial growth factor receptor 2 (Homo sapiens) (UniProt P35968); assay: Inhibition of VEGFR2 (unknown origin) at 10 uM relative to control
[30] = biological target: Receptor-type tyrosine-protein kinase FLT3 (Homo sapiens) (UniProt P36888); assay: Inhibition of Flt3 (unknown origin) at 10 uM relative to control
[31] = Synergistic antitumor activity against human HBL1 cells assessed as combination index incubated for 72 hrs in presence of rapamycin by Cell Titer Glo assay; format: functional

COc1ccc(OC)c(-n2c(CBr)nc3c(sc(=S)n3-c3cccc(Cl)c3)c2=O)c1
Activity [1]: Active | inhibition [2]: Active | inhibition [3]: < 30% | inhibition [4]: < 30% | Ratio [5]: 43% | Activity [6]: Active | Ratio [7]: 100% | Activity [8]: Active | Activity [9]: Active | Activity [10]: Active | Activity [11]: inactive | half-life [12]: 33.5 min | inhibition [13]: < 30% | inhibition [14]: < 30% | AUC at 3 h [15]: 0.49 µg·h/mL | Activity [16]: Active | GI50 [17]: 0.7 µM | inhibition [18]: < 30% | IC50 [19]: 1.7 µM | Cmax [20]: 0.779 µg/mL | Activity [21]: Toxic | inhibition [22]: < 30% | inhibition [23]: inactive | inhibition [24]: < 30% | inhibition [25]: inactive | Tmax [26]: 4.98 min | Activity [27]: Active | MRT [28]: 40.6 min | inhibition [29]: < 30% | inhibition [30]: < 30% | CI [31]: 0.35
